Where “and” joins values, the source holds several entries; their conditions need not be identical. Identical values can stand only once. Toxic doses and inconclusive results are not listed. Starred links: 1 amine or outer side, 2 acyl side, 3 side chain; linkers in the order of their positions; H or OH if unused. Positions of bridges follow the written chain, without caps; N, C: chain ends. Non-standard residues stand in square brackets, D forms with d. Residues, ends and D or L forms follow the SMILES beside them. Chains are numbered I, II in the order given. Actinocin(9to1) = Cc1c2oc3c(C)ccc(C(=O)[*:1])c3nc-2c(C(=O)[*:2])c(N)c1=O; NMeV = CN[CH](C(=O)O)C(C)C; Pip = O=C(O)[CH]1CCCCN1; Sar = CNCC(=O)O
Test system: BDF1 mice, P388 leukemia ip, median survival T/C
Assay: NCI In Vivo Anticancer Drug Screen. Data for tumor model P388 Leukemia (intraperitoneal) in B6D2F1 (BDF1) mice
Details: endpoint: median survival time, higher = longer survival
Procedure, shortened: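 Compound-treated tumour-bearing mice were compared with vehicle-treated controls. Survival was recorded, and the value is the treated-group measurement divided by the control-group measurement (T/C).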

[1] = dose: 100.0 mg/kg/injection, schedule: Q04DX002 (ip), vehicle: saline with Tween-80
[2] = dose: 200.0 mg/kg/injection, schedule: Q04DX002 (ip), vehicle: saline with Tween-80
[3] = dose: 100.0 mg/kg/injection, schedule: Q01DX009 (ip), vehicle: saline
[4] = dose: 200.0 mg/kg/injection, schedule: Q01DX009 (ip), vehicle: saline
[5] = dose: 400.0 mg/kg/injection, schedule: Q01DX009 (ip), vehicle: saline
[6] = dose: 50.0 mg/kg/injection, schedule: Q01DX009 (ip), vehicle: saline with Tween-80
[7] = dose: 100.0 mg/kg/injection, schedule: Q01DX009 (ip), vehicle: saline with Tween-80
[8] = dose: 100.0 mg/kg/injection, schedule: Q04DX003 (ip), vehicle: Klucel (hydroxypropylcellulose) (HPC)
[9] = dose: 200.0 mg/kg/injection, schedule: Q04DX003 (ip), vehicle: Klucel (hydroxypropylcellulose) (HPC)
[10] = dose: 400.0 mg/kg/injection, schedule: Q04DX003 (ip), vehicle: Klucel (hydroxypropylcellulose) (HPC)
[11] = dose: 200.0 mg/kg/injection, schedule: Q01DX009 (ip), vehicle: saline with Tween-80
[12] = dose: 25.0 mg/kg/injection, schedule: Q01DX009 (ip), vehicle: Klucel (hydroxypropylcellulose) (HPC)
[13] = dose: 50.0 mg/kg/injection, schedule: Q01DX009 (ip), vehicle: Klucel (hydroxypropylcellulose) (HPC)
[14] = dose: 100.0 mg/kg/injection, schedule: Q01DX009 (ip), vehicle: Klucel (hydroxypropylcellulose) (HPC)
[15] = dose: 100.0 mg/kg/injection, schedule: Q04DX003 (ip), vehicle: saline with Tween-80
[16] = dose: 200.0 mg/kg/injection, schedule: Q04DX003 (ip), vehicle: saline with Tween-80
[17] = dose: 400.0 mg/kg/injection, schedule: Q04DX003 (ip), vehicle: saline with Tween-80
[18] = dose: 12.5 mg/kg/injection, schedule: Q01DX009 (ip), vehicle: saline
[19] = dose: 25.0 mg/kg/injection, schedule: Q01DX009 (ip), vehicle: saline

CSc1nc(N)c2c(C(N)=O)cc(=O)[nH]c2n1
T/C [1]: 101 % of control | T/C [2]: 90 % of control

O=C(O)CCCOc1ccc(Cl)cc1Cl
T/C [3]: 100 % of control | T/C [4]: 104 % of control | T/C [5]: 95 % of control

C=CCCCCCCCCC(=O)NCCN1CCOCC1
T/C [6]: 104 % of control | T/C [7]: 100 % of control

CC(=O)C(C)(c1ccccc1)N(Cc1ccccc1)C(=O)c1ccccc1 (centres undefined)
T/C (dose: 100.0 mg/kg/injection, schedule: Q01DX001 (ip), vehicle: saline): 109 % of control | T/C (dose: 200.0 mg/kg/injection, schedule: Q01DX001 (ip), vehicle: saline): 109 % of control | T/C (dose: 400.0 mg/kg/injection, schedule: Q01DX001 (ip), vehicle: saline): 104 % of control

CCC(c1ccc2cc(OC)ccc2c1)C(CC(=O)O)C(=O)OC (centres undefined)
T/C [8]: 87 % of control | T/C [9]: 91 % of control | T/C [10]: 91 % of control

O=C(CI)N1c2ccccc2Sc2ccc3ccccc3c21
T/C [6]: 91 % of control | T/C [7]: 96 % of control | T/C [11]: 116 % of control

CC[C@@]1(O)C[C@H](OC2CC(N(C)C)C(OC3CC4OC5CC(=O)C(C)OC5OC4C(C)O3)C(C)O2)c2c(cc3c(c2O)C(=O)c2c(O)cccc2C3=O)[C@H]1C(=O)OC (some centres undefined)
T/C (dose: 0.25 mg/kg/injection, schedule: Q01DX009 (ip), vehicle: water): 109 % of control | T/C (dose: 4.0 mg/kg/injection, schedule: Q01DX009 (ip), vehicle: water): 86 % of control

O=C(O)/C=C/C(=O)Nc1ccc(Cl)c(Cl)c1
T/C [12]: 104 % of control | T/C [13]: 111 % of control | T/C [14]: 111 % of control

Oc1ccc(F)c2cccnc12
T/C (dose: 12.5 mg/kg/injection, schedule: Q01DX010 (ip), vehicle: carboxymethylcellulose (CMC)): 100 % of control | T/C (dose: 25.0 mg/kg/injection, schedule: Q01DX010 (ip), vehicle: carboxymethylcellulose (CMC)): 105 % of control | T/C (dose: 50.0 mg/kg/injection, schedule: Q01DX010 (ip), vehicle: carboxymethylcellulose (CMC)): 100 % of control

Cc1cc(C)c(C#N)c([S][Sn]([Cl])([Cl])[S]c2nc(C)cc(C)c2C#N)n1
T/C [15]: 97 % of control | T/C [16]: 98 % of control

FC(F)(F)c1nc2nc(Cl)c(Cl)nc2n1CCCN1CCOCC1
T/C [15]: 105 % of control | T/C [16]: 115 % of control | T/C [17]: 110 % of control

CCC[As](=O)(O)CCC
T/C [18]: 115 % of control | T/C [19]: 110 % of control | T/C (dose: 33.0 mg/kg/injection, schedule: Q01DX009 (ip), vehicle: saline): 100 % of control | T/C (dose: 75.0 mg/kg/injection, schedule: Q01DX009 (ip), vehicle: saline): 120 % of control

CCOC(=O)C1CC1Cc1ccccc1 (centres undefined)
T/C [7]: 108 % of control | T/C [15]: 104 % of control | T/C [11]: 108 % of control | T/C [16]: 108 % of control | T/C (dose: 400.0 mg/kg/injection, schedule: Q01DX009 (ip), vehicle: saline with Tween-80): 120 % of control | T/C [17]: 113 % of control

O=P(N1CCOCC1)(N1CC1)N1CC1
T/C [18]: 251 % of control and 290 % of control | T/C [19]: 90 % of control

CN(C)c1ccc(/C=C/c2ccnc3ccccc23)c(Cl)c1
T/C [6]: 102 % of control | T/C [7]: 96 % of control | T/C [11]: 88 % of control

O=C(CCN1CC1)Nc1ccc(Cl)c(Cl)c1
T/C (dose: 25.0 mg/kg/injection, schedule: Q04DX003 (ip), vehicle: Klucel (hydroxypropylcellulose) (HPC)): 90 % of control | T/C (dose: 50.0 mg/kg/injection, schedule: Q04DX003 (ip), vehicle: Klucel (hydroxypropylcellulose) (HPC)): 104 % of control | T/C [8]: 100 % of control

CC1NC(=O)NC1CCCCCC(=O)O (centres undefined)
T/C [14]: 95 % of control | T/C [8]: 116 % of control | T/C (dose: 200.0 mg/kg/injection, schedule: Q01DX009 (ip), vehicle: Klucel (hydroxypropylcellulose) (HPC)): 90 % of control | T/C [9]: 104 % of control | T/C (dose: 400.0 mg/kg/injection, schedule: Q01DX009 (ip), vehicle: Klucel (hydroxypropylcellulose) (HPC)): 95 % of control | T/C [10]: 91 % of control

CC(=O)OC1CCC2(C)C3CCC4(C)C(=CCC5(C(=O)O)CCC(C)(C)CC45)C3(C)CCC2C1(C)C (centres undefined)
T/C (dose: 0.12 mg/kg/injection, schedule: Q01DX009 (ip), vehicle: alcohol): 111 % of control | T/C (dose: 0.25 mg/kg/injection, schedule: Q01DX009 (ip), vehicle: alcohol): 106 % of control | T/C (dose: 0.5 mg/kg/injection, schedule: Q01DX009 (ip), vehicle: alcohol): 116 % of control

Cc1c2oc3c(C)ccc(C(=O)NC4C(=O)NC(C(C)C)C(=O)N5CCCCC5C(=O)N(C)CC(=O)N(C)C(C(C)C)C(=O)OC4C)c3nc-2c(C(=O)NC2C(=O)NC(C(C)C)C(=O)N3CCCCC3C(=O)N(C)CC(=O)N(C)C(C(C)C)C(=O)OC2C)c(N)c1=O (centres undefined) (I: TV[Pip][Sar][NMeV] / II: TV[Pip][Sar][NMeV]; ester I:1-I:C, II:1-II:C; linker I:N-II:N via Actinocin(9to1); configuration not given here)
T/C (dose: 0.25 mg/kg/injection, schedule: Q01DX009 (ip), vehicle: saline + alcohol): 114 % of control | T/C (dose: 0.75 mg/kg/injection, schedule: Q04DX003 (ip), vehicle: saline + alcohol): 116 % of control | T/C (dose: 2.0 mg/kg/injection, schedule: Q01DX009 (ip), vehicle: saline + alcohol): 162 % of control | T/C (dose: 4.0 mg/kg/injection, schedule: Q01DX009 (ip), vehicle: saline + alcohol): 180 % of control | T/C (dose: 6.0 mg/kg/injection, schedule: Q04DX003 (ip), vehicle: saline + alcohol): 160 % of control | T/C (dose: 12.0 mg/kg/injection, schedule: Q04DX003 (ip), vehicle: saline + alcohol): 155 % of control

CC(=O)n1cc(CCC(=O)O)c2ccccc21
T/C [1]: 106 % of control | T/C [2]: 101 % of control | T/C (dose: 400.0 mg/kg/injection, schedule: Q04DX002 (ip), vehicle: saline with Tween-80): 102 % of control

CCOC(=O)NC
T/C [3]: 104 % of control | T/C [4]: 100 % of control | T/C [5]: 112 % of control

O=C(OC(c1ccccc1)(C(F)(F)F)C(F)(F)F)c1cccc(Cl)c1
T/C [6]: 104 % of control | T/C [7]: 109 % of control | T/C [11]: 118 % of control

CCN(CC)CCCNC(C)CCCN(CC)CC (centres undefined)
T/C (dose: 50.0 mg/kg/injection, schedule: Q01DX009 (ip), vehicle: water): 103 % of control | T/C (dose: 100.0 mg/kg/injection, schedule: Q01DX009 (ip), vehicle: water): 98 % of control | T/C (dose: 100.0 mg/kg/injection, schedule: Q04DX003 (ip), vehicle: water): 102 % of control | T/C (dose: 200.0 mg/kg/injection, schedule: Q04DX003 (ip), vehicle: water): 100 % of control

O=S(=O)(Cc1ccc(Cl)cc1)c1nc2ccccc2s1
T/C (dose: 50.0 mg/kg/injection, schedule: Q01DX005 (ip), vehicle: saline with Tween-80): 107 % of control | T/C (dose: 100.0 mg/kg/injection, schedule: Q01DX005 (ip), vehicle: saline with Tween-80): 105 % of control

CC1(C)CC(=O)C2=C(C1)OC1=C(C(=O)CC(C)(C)C1)C2c1cccc([N+](=O)[O-])c1
T/C [6]: 104 % of control | T/C [7]: 123 % of control | T/C [11]: 106 % of control

O=C(O)CN(Cc1ccccc1)Sc1ccccc1[N+](=O)[O-]
T/C (dose: 25.0 mg/kg/injection, schedule: Q04DX003 (ip), vehicle: other): 105 % of control | T/C (dose: 50.0 mg/kg/injection, schedule: Q04DX003 (ip), vehicle: other): 117 % of control | T/C (dose: 200.0 mg/kg/injection, schedule: Q04DX003 (ip), vehicle: other): 117 % of control

CCNSc1ccccc1
T/C (dose: 12.5 mg/kg/injection, schedule: Q01DX009 (ip), vehicle: Klucel (hydroxypropylcellulose) (HPC)): 109 % of control | T/C [12]: 110 % of control | T/C [13]: 106 % of control

O=c1cc(-c2ccccc2)[nH]c(=S)[nH]1
T/C [15]: 95 % of control | T/C [16]: 104 % of control | T/C [17]: 100 % of control
